The assay concerns the target T1, human TRPM8 (Homo sapiens, UniProt Q7Z2W7).
T1 construct: expressed in transfected cells
The experiment in a line: In Vitro human TRPM8 Functional Assay (intracellular Ca2+, Fluo4, FDSS, menthol activation). Type of assay: cell-based. The settings on record: HEK293 cells stably expressing human TRPM8; activation with L-(-)-Menthol; 11-point dose-response. How it is done:
In Vitro human TRPM8 Functional Assay
The functional activity of compounds was determined by measuring changes in intracellular calcium concentration using a Ca^2+-sensitive fluorescent dye, Fluo4 (Molecular Probes). The changes in fluorescent signal were monitored by the cell imaging technology by Hamamatsu Photonics's Functional Drug Screening System (FDSS).
HEK293 cells stably expressing human TRPM8 were grown in T175 flasks, in a 5% CO2 humidified incubator to about 80% confluence. Media composition consisted of Dulbecco's Modified Eagle Medium (high glucose), 10% fetal calf serum (FCS), 100 units/ml Penicillin, 100 microg/ml Streptomycin and 600 microg/ml Geneticine.
1. Plate-out HEK293-TRPM8 cells (40 microL medium containing 30,000 cells per well) into poly-D-lysine coated 384-well plates (BD FALCON) at 24 hours prior to assay.
1. […] 2. […] 3. Place the plate at room temperature in dark for 1 hour. 4. […] 5. Add 20 microL of compound solutions into each well and leave the plate for 5 minutes under the dark at room temperature. 6. Measure activity by FDSS as follows: • Set the assay plate on the stacker of FDSS • Start the detection of fluorescence intensity • After 30 sec, add 20 microL of 90 microM L-(−)-Menthol
IC50 values for compounds of the present invention were determined from 11-point dose-response studies. Curves were generated using the average of duplicate wells for each data point. Finally, the IC50 values are calculated with the best-fit dose curve determined by XLfit (ID Business Solutions Ltd.).

SMILES strings stand for the structures.

T1 sequence (Q7Z2W7 whole entry): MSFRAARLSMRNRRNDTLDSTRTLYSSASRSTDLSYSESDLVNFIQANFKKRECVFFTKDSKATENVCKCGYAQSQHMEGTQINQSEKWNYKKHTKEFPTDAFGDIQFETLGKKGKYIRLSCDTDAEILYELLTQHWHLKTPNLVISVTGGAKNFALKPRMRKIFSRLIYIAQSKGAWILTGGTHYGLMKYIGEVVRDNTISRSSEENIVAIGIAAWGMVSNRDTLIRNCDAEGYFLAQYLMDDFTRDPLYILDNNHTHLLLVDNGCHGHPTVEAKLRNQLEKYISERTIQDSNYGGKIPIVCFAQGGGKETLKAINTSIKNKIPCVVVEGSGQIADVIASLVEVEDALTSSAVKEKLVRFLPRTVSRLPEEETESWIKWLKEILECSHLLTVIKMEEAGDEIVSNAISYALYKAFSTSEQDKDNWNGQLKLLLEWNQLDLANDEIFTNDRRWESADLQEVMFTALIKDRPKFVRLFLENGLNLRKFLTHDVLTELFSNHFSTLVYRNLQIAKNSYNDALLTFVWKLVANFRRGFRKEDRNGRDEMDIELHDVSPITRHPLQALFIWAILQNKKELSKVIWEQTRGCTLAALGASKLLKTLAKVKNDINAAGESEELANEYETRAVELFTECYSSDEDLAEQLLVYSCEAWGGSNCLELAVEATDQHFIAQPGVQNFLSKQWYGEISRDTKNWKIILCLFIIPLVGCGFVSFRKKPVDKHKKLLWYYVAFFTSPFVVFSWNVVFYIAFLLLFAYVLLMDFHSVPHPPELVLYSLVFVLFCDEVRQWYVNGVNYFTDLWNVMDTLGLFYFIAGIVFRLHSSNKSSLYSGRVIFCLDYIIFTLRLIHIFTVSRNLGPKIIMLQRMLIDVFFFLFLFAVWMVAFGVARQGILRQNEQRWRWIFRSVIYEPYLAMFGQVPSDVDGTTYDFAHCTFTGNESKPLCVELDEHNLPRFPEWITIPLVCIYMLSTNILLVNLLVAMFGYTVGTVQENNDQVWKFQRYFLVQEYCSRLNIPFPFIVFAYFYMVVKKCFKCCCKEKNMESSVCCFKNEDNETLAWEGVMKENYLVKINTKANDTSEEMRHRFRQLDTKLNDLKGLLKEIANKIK

As usually defined, the IC50 is the concentration at which inhibition is half-maximal. Higher therefore signals weaker potency in that assay. As for `Cc1cccc(N(C(C)c2ccccc2F)S(=O)(=O)c2ccccc2C)c1` (centres unmarked) [Example 100, N-(1-(2-Fluorophenyl)ethyl)-2-methyl-N-tolyl benzenesulfonamide], the IC50 was 1 to 10 µM.
As for `COc1ccc(N(Cc2ccccc2)S(=O)(=O)c2ccc(Cl)c(C(=O)O)c2)cc1` [Example 119, 5-(N-Benzyl-N-(4-methoxyphenyl)sulfamoyl)-2-chlorobenzoic acid], the concentration for half-maximal inhibition (IC50) fell in the range of 10 to 30 µM.
`CN(C)S(=O)(=O)Nc1ccc(S(=O)(=O)N(Cc2ccccc2)c2ncc(C(F)(F)F)cc2Cl)cc1` [Example 194, N-Benzyl-N-(3-chloro-5-(trifluoromethyl)pyridin-2-yl)-4-((N,N-dimethylsulfamoyl)amino)benzenesulfonamide] displayed an IC50 of less than 1 µM.
Then `COc1cccc(N(C(C)c2ccccc2F)S(=O)(=O)c2ccccc2F)c1` (centres unmarked) [Example 92, 2-Fluoro-N-(1-(2-fluorophenyl)ethyl)-N-(3-methoxyphenyl)benzene-sulfonamide], with 1 to 10 µM.
As for `O=C(O)c1ccc(S(=O)(=O)N(Cc2ccccc2)c2ncc(C(F)(F)F)cc2Cl)cc1Cl` [Example 188, 4-(N-Benzyl-N-(3-chloro-5-(trifluoromethyl)pyridin-2-yl)sulfamoyl)-2-chlorobenzoic acid], the IC50 is less than 1 µM.
With `Cc1cccnc1N(Cc1ccccc1)S(=O)(=O)c1ccc(C(=O)O)cc1` [Example 34, 4-(N-Benzyl-N-(3-methylpyridin-2-yl)sulfamoyl)benzoic acid] the figure was 1 to 10 µM; with `COc1cccc(C(C)N(c2cccc(OC)c2)S(=O)(=O)c2ccc(C)c(Cl)c2)c1` (centres unmarked) [Example 102, 3-Chloro-N-(3-methoxyphenyl)-N-(1-(3-methoxy-phenyl)ethyl)-4-methyl benzenesulfonamide], 1 to 10 µM; with `CS(=O)(=O)NCc1ccc(S(=O)(=O)N(Cc2ccccc2)c2ncc(C(F)(F)F)cc2Cl)cc1` [Example 176, N-Benzyl-N-(3-chloro-5-(trifluoromethyl)pyridin-2-yl)-4-(methylsulfonamidomethyl)benzenesulfonamide], less than 1 µM.
With `O=C(O)c1ccc(S(=O)(=O)N(Cc2ccc(-c3cccs3)cc2)c2ncc(C(F)(F)F)cc2Cl)cc1` [Example 155, 4-(N-(3-Chloro-5-(trifluoromethyl)pyridin-2-yl)-N-(4-(thiophen-2-yl)benzyl)sulfamoyl)benzoic acid] the figure was less than 1 µM; with `O=C(O)c1cc(S(=O)(=O)N(Cc2ccccc2)c2ccccc2Cl)ccc1Cl` [Example 121, 5-(N-Benzyl-N-(2-chlorophenyl)sulfamoyl)-2-chlorobenzoic acid], 1 to 10 µM.
Then `Cc1cccc(N(C(C)c2ccccc2F)S(=O)(=O)c2ccccc2F)c1` (centres unmarked) [Example 91, 2-Fluoro-N-(1-(2-fluoro-phenyl)ethyl)-N-m-tolyl benzenesulfonamide], with 1 to 10 µM.
Consider `O=S(=O)(c1ccc(O)nc1)N(Cc1ccccc1)c1ncc(C(F)(F)F)cc1Cl` [Example 144, N-Benzyl-N-(3-chloro-5-(trifluoromethyl)pyridin-2-yl)-6-hydroxypyridine-3-sulfonamide], for which the IC50 was less than 1 µM.
Then `O=C(CN(c1cccc(C(F)(F)F)c1)S(=O)(=O)c1ccccc1)Nc1ccccc1` [Example 8, N-Phenyl-2-(N-(3-(trifluoromethyl)phenyl)benzenesulfonamido)acetamide], with 1 to 10 µM.
Then `Cc1ccc(CN(c2ncc(Cl)cc2Cl)S(=O)(=O)c2ccc(C(=O)O)cc2)cc1F` [Example 67, 4-(N-(3,5-Dichloropyridin-2-yl)-N-(3-fluoro-4-methylbenzyl)sulfamoyl)benzoic acid], with less than 1 µM; and `Cc1ccc(S(=O)(=O)N(Cc2ccccc2)c2ccccn2)cc1[N+](=O)[O-]` [Example 133, N-Benzyl-4-methyl-3-nitro-N-(pyridin-2-yl) benzenesulfonamide], with 1 to 10 µM.
With `COc1ccc(N(C(C)c2ccccc2OC)S(=O)(=O)c2ccc(C)cc2)cc1` (centres unmarked) [Example 89, N-(4-Methoxyphenyl)-N-(1-(2-methoxyphenyl)ethyl)-4-methylbenzene-sulfonamide], the IC50 lay in the range of 1 to 10 µM.
`COc1ccc(OC)c(C(C)N(c2cccc(Cl)c2)S(=O)(=O)c2ccc(C)cc2)c1` (centres unmarked) [Example 86, N-(3-Chlorophenyl)-N-(1-(2,5-dimethoxyphenyl)ethyl)-4-methylbenzene-sulfonamide]: the IC50 lay within 1 to 10 µM.
In turn, `COc1cccc(-c2cnc(N(Cc3ccccc3)S(=O)(=O)c3ccc(C(=O)O)cc3)c(Cl)c2)c1` [Example 187, 4-(N-Benzyl-N-(3-chloro-5-(3-methoxyphenyl)pyridin-2-yl)sulfamoyl)benzoic acid] displayed an IC50 of less than 1 µM.
Then `O=C(O)c1ccc(S(=O)(=O)N(Cc2ccc(-c3ccco3)cc2)c2ncc(C(F)(F)F)cc2Cl)cc1` [Example 157, 4-(N-(3-Chloro-5-(trifluoromethyl)pyridin-2-yl)-N-(4-(furan-2-yl)-benzyl)sulfamoyl)benzoic acid], with less than 1 µM; and `O=C(O)c1ccc(S(=O)(=O)N(Cc2ccccc2)c2ncc(Br)cc2Cl)cc1` [Example 180, 4-(N-Benzyl-N-(5-bromo-3-chloropyridin-2-yl)sulfamoyl)benzoic acid], with less than 1 µM.
Then `O=C(O)c1ccc(S(=O)(=O)N(Cc2ccc(-c3cnco3)cc2)c2ncc(C(F)(F)F)cc2Cl)cc1` [Example 159, 4-(N-(3-Chloro-5-(trifluoromethyl)pyridin-2-yl)-N-(4-(oxazol-5-yl)benzyl)sulfamoyl)benzoic acid], with less than 1 µM; and `O=C(O)c1ccc(S(=O)(=O)N(CC2CCN(c3ccccn3)CC2)c2ncc(C(F)(F)F)cc2Cl)cc1` [Example 142, 4-(N-(3-Chloro-5-(trifluoromethyl)pyridin-2-yl)-N-((1-(pyridin-2-yl)piperidin-4-yl)methyl)sulfamoyl)benzoic acid], with less than 1 µM.
Then `CN1CCN(C(=O)CN(c2cccc(C(F)(F)F)c2)S(=O)(=O)c2ccccc2)CC1` [Example 5, N-(2-(4-Methylpiperazin-1-yl)-2-oxoethyl)-N-(3-(trifluoromethyl)phenyl)benzenesulfonamide], with less than 1 µM; and `O=C(O)c1ccc(S(=O)(=O)N(Cc2ccccc2)c2ncc(C(F)(F)F)cc2Cl)cc1` [Example 1, 4-(N-Benzyl-N-(3-chloro-5-(trifluoromethyl)pyridin-2-yl)sulfamoyl)benzoic acid], with less than 1 µM.
Turning to `O=C(O)c1ccc(S(=O)(=O)N(Cc2ccccc2)c2ncc(-c3ccsc3)cc2Cl)cc1` [Example 184, 4-(N-Benzyl-N-(3-chloro-5-(thiophen-3-yl)pyridin-2-yl)sulfamoyl)benzoic acid], the IC50 was less than 1 µM.
`Cc1cc(Cl)cnc1N(Cc1ccc(Cl)c(C(F)(F)F)c1)S(=O)(=O)c1ccc(C(=O)O)cc1` [Example 79, 4-(N-(4-Chloro-3-(trifluoromethyl)benzyl)-N-(5-chloro-3-methylpyridin-2-yl)sulfamoyl)benzoic acid] came in with an IC50 of less than 1 µM.
With `O=C(O)c1ccc(S(=O)(=O)N(Cc2ccc(N3CCCC3=O)cc2)c2ncc(Cl)cc2Cl)cc1` [Example 74, 4-(N-(3,5-Dichloropyridin-2-yl)-N-(4-(2-oxopyrrolidin-1-yl)benzyl)sulfamoyl)benzoic acid] the figure was 1 to 10 µM; with `Cc1cccc(N(C(C)c2ccccc2F)S(=O)(=O)c2ccc(F)cc2C)c1` (centres unmarked) [Example 98, 4-Fluoro-N-(1-(2-fluorophenyl)ethyl)-2-methyl-N-m-tolylbenzenesulfonamide], 1 to 10 µM.
`COc1ccc(N(Cc2ccccc2)S(=O)(=O)c2cc(C(=O)O)ccc2Cl)cc1` [Example 124, 3-(N-Benzyl-N-(4-methoxyphenyl)sulfamoyl)-4-chlorobenzoic acid]: the IC50 lay in the range of 1 to 10 µM.
As for `O=C(O)c1ccc(S(=O)(=O)N(Cc2cccc(Cl)c2)c2ncc(C(F)(F)F)cc2Cl)cc1` [Example 48, 4-(N-(3-Chloro-5-(trifluoromethyl)pyridin-2-yl)-N-(3-chlorobenzyl)sulfamoyl)benzoic acid], the IC50 was less than 1 µM.
With `O=C(O)c1ccc(S(=O)(=O)N(CCN2CCOCC2)c2ncc(C(F)(F)F)cc2Cl)cc1` [Example 57, 4-(N-(3-Chloro-5-(trifluoromethyl)pyridin-2-yl)-N-(2-morpholinoethyl)sulfamoyl)benzoic acid] the figure was 1 to 10 µM; with `Cc1ccc(S(=O)(=O)N(Cc2ccccc2)c2ccccn2)cc1` [Example 106, N-Benzyl-4-methyl-N-(pyridin-2-yl) benzenesulfonamide], 1 to 10 µM; with `O=C(O)c1cccc(S(=O)(=O)N(Cc2ccccc2)c2ccccc2)c1` [Example 116, 3-(N-Benzyl-N-phenylsulfamoyl)benozic acid], 10 to 30 µM.
Then `O=C(O)c1ccc(S(=O)(=O)N(Cc2ccc(Cl)c(F)c2)c2ncc(Cl)cc2Cl)cc1` [Example 62, 4-(N-(4-Chloro-3-fluorobenzyl)-N-(3,5-dichloropyridin-2-yl)sulfamoyl)benzoic acid], with less than 1 µM; and `COc1cccc(CN(c2ncc(C(F)(F)F)cc2Cl)S(=O)(=O)c2ccc(C(=O)O)cc2)c1` [Example 24, 4-(N-(3-Chloro-5-(trifluoromethyl)pyridin-2-yl)-N-(3-methoxybenzyl)sulfamoyl)benzoic acid], with less than 1 µM.
